The results in this text go back to US11684306B2, “Stable water isotope labeling and magnetic resonance imaging for visualization of the presence of and prediction of the likelihood of occurence of rapidly dividing cells” (THE UNITED STATES OF AMERICA, AS REPRESENTED BY THE …, priority 2016, dated 2023).

Holding throughout (type): in vivo
Data set [1] is described as follows: Safety of deuterium enrichment in total body water.
Data set [2] is described as follows: Total body water (TBW) deuterium enrichment in mice. The text has this: In one aspect, deuterium labeling was achieved by intraperitoneal injection of 100% ^2H2O with NaCl added to make this fluid isotonic, then maintaining the achieved 5% ^2H enrichment in total body water (TBW) by providing 8% ^2H2O in drinking water to mice. Deuterium within total body water diffuses rapidly into all tissues and is excreted unchanged by the kidneys. Therefore, according to various embodiments, deuterium labeled fluids may be provided to an animal or human subject via injected and/or ingested fluid yielding a deuterium concentration of about 5% TBW. […] Higher TBW enrichments (up to 20% TBW ^2H) may improve sensitivity of dMRI detection. Such enrichments should be safe, as deuterium is non-radioactive, tasteless, colorless and without known side effects at these doses.
FIG. 9 is an illustration for one embodiment of a scheme 900 for labeling and imaging rapidly dividing cells. As shown, the method begins with total body irradiation (TBI) conditioning performed one day prior to the infusion of a transplant graft (day −1), indicated as 902. In the embodiment shown, the bone marrow transplant (BMT) graft, containing bone marrow stem cells and T cells from the donor spleen, is infused on day 0, indicated as 904. […]
For measuring ^2H2O water levels in TBW (e.g. urine), we developed a simple and quantitative headspace-GC-NCI-MS method (publication pending). […]

Data set [3] can be described thus: Total body water (TBW) deuterium enrichment in people.

SMILES strings stand for the structures.

Turning to `[2H]O[2H]` [deuterated water], the toxicity result in data set [1] (doses up to 20% in total body water) is reported as “non-toxic”. Also, in data set [1] (enrichments up to and including approximately 20% TBW), the “safety of higher TBW enrichment” value is on record as “safely achieved”. In addition, the “effect on rates of DNA synthesis” value in data set [1] (in vivo) is listed as “does not affect rates of DNA synthesis”. The “time for TBW deuterium enrichment to return to baseline (0.015%) after supplementation is discontinued” value is recorded as “approximately 7 days” in data set [2] and roughly 14 days in data set [3].
